Assay [1] deals with Hepacivirus hominis. Description: Inhibition of HCV NS3 RNA helicase activity using […] as substrate measured every 5 secs for 5 mins and every 30 secs up to 30 mins by photoinduced electron transfer-based fluorescence assay.
A short description of assay [2]: Inhibition of HCV NS3 RNA helicase activity using [32Pgamma]-labelled partial duplex RNA as substrate incubated for 15 mins prior to ATP addition measured after 30 mins by PAGE analysis. On the set-up: species or system Hepacivirus hominis.
Assay [3] is described as follows: (§1) Inhibition of HCV NS3 ATPase activity using [32gamma]ATP as substrate after 30 mins by thin layer chromatography analysis in the presence of poly(U)RNA. Also noted: species or system Hepacivirus hominis.
For assay [4], the system named is Hepacivirus hominis. The assay is described as §1.
Assay [5] has as its system Hepacivirus hominis. Description: Noncompetitive inhibition of HCV NS3 ATPase activity using 1 to 8 mM [32gamma]ATP at 0.1 mM by Lineweaver-Burk plot analysis.
Assay [6] addresses T1, ATP-dependent DNA/RNA helicase DHX36 (Homo sapiens) (UniProt Q9H2U1).
T1 sequence (whole entry): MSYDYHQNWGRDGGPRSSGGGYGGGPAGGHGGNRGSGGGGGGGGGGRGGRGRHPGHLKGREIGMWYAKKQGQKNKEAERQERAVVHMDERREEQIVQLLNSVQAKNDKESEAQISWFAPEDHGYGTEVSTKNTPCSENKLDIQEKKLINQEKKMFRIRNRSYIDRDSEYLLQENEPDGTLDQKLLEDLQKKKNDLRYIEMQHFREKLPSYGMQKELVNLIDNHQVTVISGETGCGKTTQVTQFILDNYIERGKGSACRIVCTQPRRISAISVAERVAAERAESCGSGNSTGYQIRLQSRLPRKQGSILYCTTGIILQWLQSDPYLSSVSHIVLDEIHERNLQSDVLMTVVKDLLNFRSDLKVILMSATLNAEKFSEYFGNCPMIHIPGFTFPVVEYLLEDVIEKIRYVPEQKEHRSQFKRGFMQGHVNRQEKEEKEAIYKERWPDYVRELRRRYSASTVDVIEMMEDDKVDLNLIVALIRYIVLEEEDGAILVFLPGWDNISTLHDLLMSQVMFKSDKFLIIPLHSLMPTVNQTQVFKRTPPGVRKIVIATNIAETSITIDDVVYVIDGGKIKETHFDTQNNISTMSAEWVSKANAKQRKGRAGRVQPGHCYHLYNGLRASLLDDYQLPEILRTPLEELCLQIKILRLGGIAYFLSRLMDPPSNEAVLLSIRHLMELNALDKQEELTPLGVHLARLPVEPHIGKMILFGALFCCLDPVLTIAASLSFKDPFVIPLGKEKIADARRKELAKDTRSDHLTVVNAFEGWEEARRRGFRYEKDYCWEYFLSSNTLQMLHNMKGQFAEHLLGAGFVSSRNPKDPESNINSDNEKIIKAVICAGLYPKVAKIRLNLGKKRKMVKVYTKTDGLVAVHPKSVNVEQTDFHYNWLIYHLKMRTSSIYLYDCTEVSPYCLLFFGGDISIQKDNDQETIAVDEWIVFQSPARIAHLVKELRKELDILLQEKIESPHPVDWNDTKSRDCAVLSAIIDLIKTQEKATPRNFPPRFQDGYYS
As to the kind of experiment: Inhibition of human DHX36/RHAU ATPase activity using [32Pgamma]ATP as substrate for 30 mins in the presence of poly(U)RNA.

The subject of assay [7] is Hepacivirus hominis. Description: Inhibition of HCV NS3 binding to human 5'-[32Pgamma]-labelled lethal-7 microRNA precursor ssRNA at 0.1 mM after 15 mins by PAGE analysis.
Assay [8] has as its system Hepacivirus hominis. As to the kind of experiment: Inhibition of HCV NS3 ATPase activity using [32Pgamma]ATP as substrate at 0.1 mM after 60 mins by thin layer chromatography analysis in the absence of poly(U)RNA.
Assay [9] concerns Hepacivirus hominis. As to the kind of experiment: Binding affinity to HCV NS3 helicase assessed as increase in fluorescence after 15 mins by isothermal denaturation assay.

The results in this text go back to ChEMBL document CHEMBL2040706, “Inhibition of hepatitis C virus NS3 helicase by manoalide” (J Nat Prod, 2012).

Structures are written as SMILES. Active and inactive are the calls of the source. No cut-off for these calls is given here.

The IC50 is the midpoint of a concentration-inhibition curve.

As for `CC1=C(CC/C(C)=C/CCC2=CC[C@H](C3=CC(=O)O[C@H]3O)O[C@H]2O)C(C)(C)CCC1` [MANOALIDE], the inhibition result (in the assay with Hepacivirus hominis [1]; with Hepacivirus hominis [5]; in assay [6]; in the assay with Hepacivirus hominis [7]; with Hepacivirus hominis [8]) was “Active” throughout. The IC50 in [2] came to 15 µM; in assay [3], 70 µM. Further, in the assay on Hepacivirus hominis [4], the inhibition entry is “Dose-dependent effect”. Further, in the assay on Hepacivirus hominis [9], the Activity entry was “Dose-dependent effect”.
